Consider 13 compounds from patent US11098044B2, “Imidazopyridinyl compounds and use thereof for treatment of neurodegenerative disorders” (1ST Biotherapeutics, Inc., priority 2019, dated 2021).

Holding throughout (format): biochemical
For assay [1], the target named is LRRK2 (WT) (Homo sapiens (Human), UniProt Q5S007). Description: LRRK2 Kinase Assay (Adapta). The note with it: 70 μM ATP, LRRKtide substrate. An outline of the steps:
(§1)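 Adapta TR-FRET kinase assay with LRRKtide substrate in 50 mM Tris pH 8.5, 0.01% BRIJ-35, 10 mM MgCl2, 1 mM EGTA, 0.02% NaN3. ATP at Km: 70 μM for WT LRRK2, 100 μM for G2019S. Reaction 1 h at room temperature; after 60 min with detection mix, 665/615 nm emission ratio read.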

For assay [2], the target named is c-Abl (His-tagged recombinant human ABL1) (Homo sapiens (Human), UniProt P00519). Nature of the assay: c-abl Kinase Assay (ADP-Glo). The note with it: ATP (25 μM), Abltide substrate. An outline of the steps: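 His-tagged human ABL1 (0.25 ng/μl), Abltide (0.01 μg/μl) and ATP (25 μM), each at its added concentration, reacted with compound (0.5% DMSO) for 30 min at 30 °C. Buffer was 50 mM HEPES pH 7.5, 10 mM MgCl2, 1 mM EGTA, 0.05% BSA, 0.01% Triton X-100, 2 mM DTT. ADP formed was read by ADP-Glo luminescence, and IC50 was fitted from percent inhibition across concentrations.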
Sequence of c-Abl (His-tagged recombinant human ABL1) (P00519 whole entry): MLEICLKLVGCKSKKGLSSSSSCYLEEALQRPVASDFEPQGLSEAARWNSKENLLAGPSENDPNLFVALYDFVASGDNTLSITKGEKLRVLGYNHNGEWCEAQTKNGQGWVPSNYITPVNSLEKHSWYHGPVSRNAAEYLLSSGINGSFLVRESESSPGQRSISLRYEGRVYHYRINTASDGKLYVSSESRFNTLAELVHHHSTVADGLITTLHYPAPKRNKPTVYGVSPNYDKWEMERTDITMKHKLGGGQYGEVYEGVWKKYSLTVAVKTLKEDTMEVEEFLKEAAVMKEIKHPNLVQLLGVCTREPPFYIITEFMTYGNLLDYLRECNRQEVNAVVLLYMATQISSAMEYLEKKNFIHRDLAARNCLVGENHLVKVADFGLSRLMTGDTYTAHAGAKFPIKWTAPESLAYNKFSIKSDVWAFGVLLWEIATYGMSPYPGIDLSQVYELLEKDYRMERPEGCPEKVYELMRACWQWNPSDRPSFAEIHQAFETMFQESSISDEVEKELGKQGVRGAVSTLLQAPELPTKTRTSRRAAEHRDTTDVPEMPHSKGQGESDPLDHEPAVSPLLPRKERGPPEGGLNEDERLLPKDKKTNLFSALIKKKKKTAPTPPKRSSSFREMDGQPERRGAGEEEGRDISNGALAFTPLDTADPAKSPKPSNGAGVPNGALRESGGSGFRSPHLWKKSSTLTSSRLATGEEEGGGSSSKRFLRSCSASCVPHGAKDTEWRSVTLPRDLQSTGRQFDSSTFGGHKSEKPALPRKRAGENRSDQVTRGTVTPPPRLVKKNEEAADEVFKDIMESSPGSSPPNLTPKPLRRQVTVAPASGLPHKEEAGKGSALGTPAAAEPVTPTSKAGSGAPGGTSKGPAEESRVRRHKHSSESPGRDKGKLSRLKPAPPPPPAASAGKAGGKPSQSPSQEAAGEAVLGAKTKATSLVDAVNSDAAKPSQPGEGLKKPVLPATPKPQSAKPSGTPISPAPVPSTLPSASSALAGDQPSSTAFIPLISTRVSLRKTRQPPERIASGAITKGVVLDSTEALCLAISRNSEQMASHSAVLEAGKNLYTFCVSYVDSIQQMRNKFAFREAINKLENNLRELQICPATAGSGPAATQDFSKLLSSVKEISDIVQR
A general note: ADP-Glo turns the ADP formed in a reaction into a luminescent signal.

In assay [3] the target is LRRK2 G2019S (Homo sapiens (Human), UniProt Q5S007, G2019S). Nature of the assay: LRRK2 G2019S Kinase Assay (Adapta). The note with it: 100 μM ATP, LRRKtide substrate; read-out: LRRK2_G2019S IC50. An outline of the steps:
as §1

Broadly, the IC50 is the concentration that gives 50% inhibition.

Sequence of LRRK2 G2019S (Q5S007 whole entry G2019S): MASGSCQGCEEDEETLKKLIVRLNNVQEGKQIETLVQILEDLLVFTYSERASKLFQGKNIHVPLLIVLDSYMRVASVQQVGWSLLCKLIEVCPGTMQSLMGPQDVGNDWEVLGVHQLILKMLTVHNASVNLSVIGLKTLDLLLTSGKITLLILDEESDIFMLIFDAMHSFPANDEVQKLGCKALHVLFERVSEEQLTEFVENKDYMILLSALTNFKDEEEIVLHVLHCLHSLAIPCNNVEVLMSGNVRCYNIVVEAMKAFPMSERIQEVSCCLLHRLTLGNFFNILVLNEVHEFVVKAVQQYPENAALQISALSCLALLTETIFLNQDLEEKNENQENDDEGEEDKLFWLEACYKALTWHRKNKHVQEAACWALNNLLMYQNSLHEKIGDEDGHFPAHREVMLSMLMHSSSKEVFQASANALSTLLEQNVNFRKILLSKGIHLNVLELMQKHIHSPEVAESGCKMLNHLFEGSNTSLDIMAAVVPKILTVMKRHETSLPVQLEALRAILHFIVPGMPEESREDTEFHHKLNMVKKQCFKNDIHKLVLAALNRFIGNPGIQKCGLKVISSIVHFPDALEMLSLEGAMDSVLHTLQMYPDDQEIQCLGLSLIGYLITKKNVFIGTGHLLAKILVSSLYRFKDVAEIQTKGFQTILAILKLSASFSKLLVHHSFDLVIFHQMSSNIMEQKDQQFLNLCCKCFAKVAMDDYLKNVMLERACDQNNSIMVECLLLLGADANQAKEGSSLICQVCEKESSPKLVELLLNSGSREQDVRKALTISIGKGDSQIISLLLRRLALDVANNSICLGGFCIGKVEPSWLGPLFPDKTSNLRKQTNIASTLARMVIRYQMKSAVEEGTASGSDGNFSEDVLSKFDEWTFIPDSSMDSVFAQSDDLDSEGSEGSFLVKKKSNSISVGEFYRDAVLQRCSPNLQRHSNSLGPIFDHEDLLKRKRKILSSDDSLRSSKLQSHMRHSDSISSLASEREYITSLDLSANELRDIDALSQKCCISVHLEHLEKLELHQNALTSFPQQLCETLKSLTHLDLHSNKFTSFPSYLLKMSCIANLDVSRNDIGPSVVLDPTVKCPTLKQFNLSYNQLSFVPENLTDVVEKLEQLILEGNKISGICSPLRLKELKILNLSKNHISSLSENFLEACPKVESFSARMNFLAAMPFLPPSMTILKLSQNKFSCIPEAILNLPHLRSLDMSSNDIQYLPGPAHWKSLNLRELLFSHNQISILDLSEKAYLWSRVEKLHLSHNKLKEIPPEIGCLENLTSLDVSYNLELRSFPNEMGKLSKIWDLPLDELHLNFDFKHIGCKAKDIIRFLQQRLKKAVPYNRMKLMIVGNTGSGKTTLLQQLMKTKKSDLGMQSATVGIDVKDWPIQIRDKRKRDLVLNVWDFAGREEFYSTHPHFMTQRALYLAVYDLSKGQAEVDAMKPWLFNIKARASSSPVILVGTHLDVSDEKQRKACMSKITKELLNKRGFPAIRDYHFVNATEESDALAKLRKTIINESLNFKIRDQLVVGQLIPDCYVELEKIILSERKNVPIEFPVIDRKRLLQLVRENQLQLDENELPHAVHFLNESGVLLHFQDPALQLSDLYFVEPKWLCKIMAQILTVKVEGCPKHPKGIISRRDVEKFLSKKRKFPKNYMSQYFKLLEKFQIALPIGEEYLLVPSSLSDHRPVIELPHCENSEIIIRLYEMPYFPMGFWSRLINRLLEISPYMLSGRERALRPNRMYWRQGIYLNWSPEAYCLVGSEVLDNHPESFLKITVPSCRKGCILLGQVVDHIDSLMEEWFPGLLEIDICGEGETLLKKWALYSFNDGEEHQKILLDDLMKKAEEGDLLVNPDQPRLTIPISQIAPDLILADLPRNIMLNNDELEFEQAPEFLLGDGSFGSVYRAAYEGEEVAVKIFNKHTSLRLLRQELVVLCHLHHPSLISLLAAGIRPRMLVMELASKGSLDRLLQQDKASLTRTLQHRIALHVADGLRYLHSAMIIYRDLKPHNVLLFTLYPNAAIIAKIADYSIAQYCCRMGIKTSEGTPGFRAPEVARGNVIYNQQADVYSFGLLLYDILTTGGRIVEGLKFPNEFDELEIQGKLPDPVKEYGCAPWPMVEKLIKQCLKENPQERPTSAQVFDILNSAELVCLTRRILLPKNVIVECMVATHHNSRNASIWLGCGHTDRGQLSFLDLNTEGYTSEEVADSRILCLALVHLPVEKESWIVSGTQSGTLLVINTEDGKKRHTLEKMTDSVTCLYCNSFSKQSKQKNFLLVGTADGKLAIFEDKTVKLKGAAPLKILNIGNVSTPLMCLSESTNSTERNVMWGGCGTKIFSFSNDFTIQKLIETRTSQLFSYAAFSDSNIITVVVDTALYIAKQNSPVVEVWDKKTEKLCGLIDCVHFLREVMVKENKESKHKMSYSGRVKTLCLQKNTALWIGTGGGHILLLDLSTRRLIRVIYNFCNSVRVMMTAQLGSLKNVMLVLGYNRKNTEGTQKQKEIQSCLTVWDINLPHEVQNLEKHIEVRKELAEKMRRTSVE
Sequence of LRRK2 (WT) (Q5S007 whole entry): as the sequence (Q5S007 whole entry G2019S) above, with S2019G counted along it

For `CSc1c(F)cccc1-c1ccc2nc(NC(=O)[C@@H]3C[C@@H]3F)cn2c1` [Example 66, (1S,2S)-2-fluoro-N-(6-(3-fluoro-2-(methylthio)phenyl)imidazo[1,2-a]pyridin-2-yl)cyclopropanecarboxamide], the IC50 in assay [1] is 101 to 1000 nM; in assay [2], less than 10 nM; in assay [3] it was 10 to 100 nM.
As for `Cc1c(F)cccc1-c1ccc2nc(NC(=O)[C@@H]3C[C@@H]3F)c(Cl)n2c1` [Example 3, (1S,2S)—N-(3-chloro-6-(3-fluoro-2-methylphenyl)imidazo[1,2-a]pyridin-2-yl)-2-fluorocyclopropane-1-carboxamide], the IC50 in assay [1] is 101 to 1000 nM; in assay [2], 10 to 100 nM; in assay [3], 101 to 1000 nM.
With `COCCOCc1c(F)cccc1-c1ccc2nc(NC(=O)[C@@H]3C[C@@H]3F)cn2c1` [Example 82, (1S,2S)-2-fluoro-N-(6-(3-fluoro-2-((2-methoxyethoxy)methyl)phenyl)imidazo[1,2-a]pyridin-2-yl)cyclopropanecarboxamide], the IC50 in assay [1] was greater than 1000 nM; in assay [2], 10 to 100 nM; in assay [3], 101 to 1000 nM.
As to `Cc1c(F)cccc1-c1ccc2nc(NC(=O)C3CC3)cn2c1` [Example 70, N-(6-(3-fluoro-2-methylphenyl)imidazo[1,2-a]pyridin-2-yl)cyclopropanecarboxamide], the figures for the IC50 in assay [1], in assay [2] and in assay [3] were 10 to 100 nM, less than 10 nM and 10 to 100 nM, respectively.
For `CC(=O)NCc1c(F)cccc1-c1ccc2nc(NC(=O)[C@@H]3C[C@@H]3F)cn2c1` [Example 75, (1S,2S)—N-(6-(2-(acetamidomethyl)-3-fluorophenyl)imidazo[1,2-a]pyridin-2-yl)-2-fluorocyclopropanecarboxamide], the IC50 in assay [1] is greater than 1000 nM; in assay [2], 101 to 1000 nM; in assay [3] it was greater than 1000 nM.
As to `Cc1c(F)cccc1-c1ccc2nc(NC(=O)[C@@H]3C[C@H]3F)cn2c1` (stereo in doubt) [Example 72, 2-fluoro-N-(6-(3-fluoro-2-methylphenyl)imidazo[1,2-a]pyridin-2-yl)cyclopropanecarboxamide], the IC50 in assay [1] is 10 to 100 nM; in assay [2], less than 10 nM; in assay [3], 10 to 100 nM.
Regarding `Cc1c(F)cncc1-c1ccc2nc(NC(=O)[C@@H]3C[C@@H]3F)c(Cl)n2c1` [Example 16, (1S,2S)—N-(3-chloro-6-(5-fluoro-4-methylpyridin-3-yl)imidazo[1,2-a]pyridin-2-yl)-2-fluorocyclopropane-1-carboxamide], the IC50 in assay [1] was greater than 1000 nM; in assay [2] it was 101 to 1000 nM; in assay [3], greater than 1000 nM.
For the compound `Cc1c(-c2ccc3nc(NC(=O)[C@@H]4C[C@@H]4F)cn3c2)ccc(Cl)c1F` [Example 46, (1S,2S)—N-(6-(4-chloro-3-fluoro-2-methylphenyl)imidazo[1,2-a]pyridin-2-yl)-2-fluorocyclopropane-1-carboxamide], the IC50 in assay [1] was 101 to 1000 nM; in assay [2], less than 10 nM; in assay [3], 101 to 1000 nM.
With `Cc1cccc(-c2ccc3nc(NC(=O)[C@@H]4C[C@@H]4F)cn3c2)c1C` [Example 22, (1S,2S)—N-(6-(2,3-dimethylphenyl)imidazo[1,2-a]pyridin-2-yl)-2-fluorocyclopropane-1-carboxamide], the results for the IC50 in assay [1], in assay [2] and in assay [3] were 101 to 1000 nM, less than 10 nM and 101 to 1000 nM, respectively.
Turning to `Cc1ccncc1-c1ccc2nc(NC(=O)[C@@H]3C[C@@H]3F)c(Cl)n2c1` [Example 7, (1S,2S)—N-(3-chloro-6-(4-methylpyridin-3-yl)imidazo[1,2-a]pyridin-2-yl)-2-fluorocyclopropane-1-carboxamide], the IC50 in assay [1] is greater than 1000 nM; in assay [2], 101 to 1000 nM; in assay [3], greater than 1000 nM.
For the compound `Cc1cc(F)ccc1-c1ccc2nc(NC(=O)[C@@H]3C[C@@H]3F)cn2c1` [Example 39, (1S,2S)-2-fluoro-N-(6-(4-fluoro-2-methylphenyl)imidazo[1,2-a]pyridin-2-yl)cyclopropane-1-carboxamide], the IC50 in assay [1] was 101 to 1000 nM; in assay [2], less than 10 nM; in assay [3], 10 to 100 nM.
In the same order, the values of `Cc1ccc(O)cc1-c1ccc2nc(NC(=O)[C@@H]3C[C@@H]3F)cn2c1` [Example 12, (1S,2S)-2-fluoro-N-(6-(5-hydroxy-2-methylphenyl)imidazo[1,2-a]pyridin-2-yl)cyclopropane-1-carboxamide] are 10 to 100 nM, less than 10 nM and 10 to 100 nM.
With `O=C(Nc1cn2cc(-c3cnccc3C(F)(F)F)ccc2n1)[C@@H]1C[C@@H]1F` [Example 31, (1S,2S)-2-fluoro-N-(6-(4-(trifluoromethyl)pyridin-3-yl)imidazo[1,2-a]pyridin-2-yl)cyclopropane-1-carboxamide], the IC50 in assay [1] was greater than 1000 nM; in assay [2] it was 101 to 1000 nM; in assay [3], 101 to 1000 nM.
